From PubChem BioAssay (NCI)
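How tested: cells in 96-well plates exposed to compound for 48 hours at five concentrations. TGI denotes the concentration required for complete inhibition of growth.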

Legend:
Experiment in all cases: DTP human tumour cell line panel, 48 h
RXF 393 renal = test system: RXF 393 renal
TK-10 renal = test system: TK-10 renal
UO-31 renal = test system: UO-31 renal
CAKI-1 renal = test system: CAKI-1 renal
DLD-1 colon = test system: DLD-1 colon
SF-295 CNS = test system: SF-295 CNS
SW-620 colon = test system: SW-620 colon
HOP-62 NSCLC = test system: HOP-62 NSCLC
OVCAR-5 ovarian = test system: OVCAR-5 ovarian
SF-268 CNS = test system: SF-268 CNS
SN12C renal = test system: SN12C renal
ACHN renal = test system: ACHN renal
DMS 114 small cell lung = test system: DMS 114 small cell lung
NCI-H522 lung = test system: NCI-H522 lung
LOX IMVI melanoma = test system: LOX IMVI melanoma
HCC-2998 colon = test system: HCC-2998 colon
LXFL 529 NSCLC = test system: LXFL 529 NSCLC
M14 melanoma = test system: M14 melanoma
SF-539 CNS = test system: SF-539 CNS
SK-MEL-2 melanoma = test system: SK-MEL-2 melanoma
KM12 colon = test system: KM12 colon
HOP-18 NSCLC = test system: HOP-18 NSCLC
A549 NSCLC = test system: A549 NSCLC
EKVX NSCLC = test system: EKVX NSCLC
IGROV1 ovarian = test system: IGROV1 ovarian
HT29 colon = test system: HT29 colon
HL-60(TB) leukemia = test system: HL-60(TB) leukemia
RPMI-8226 leukemia = test system: RPMI-8226 leukemia
786-0 renal = test system: 786-0 renal
NCI-H460 lung = test system: NCI-H460 lung
KM20L2 colon = test system: KM20L2 colon
HOP-92 NSCLC = test system: HOP-92 NSCLC
SK-MEL-28 melanoma = test system: SK-MEL-28 melanoma
M19-MEL melanoma = test system: M19-MEL melanoma
SNB-75 CNS = test system: SNB-75 CNS
OVCAR-4 ovarian = test system: OVCAR-4 ovarian
MOLT-4 leukemia = test system: MOLT-4 leukemia
RXF-631 renal = test system: RXF-631 renal
NCI-H226 lung = test system: NCI-H226 lung
COLO 205 colon = test system: COLO 205 colon
U251 CNS = test system: U251 CNS
NCI-H23 lung = test system: NCI-H23 lung
K-562 leukemia = test system: K-562 leukemia
UACC-257 melanoma = test system: UACC-257 melanoma
SR leukemia = test system: SR leukemia
SNB-19 CNS = test system: SNB-19 CNS
CCRF-CEM leukemia = test system: CCRF-CEM leukemia
SK-MEL-5 melanoma = test system: SK-MEL-5 melanoma
SNB-78 CNS = test system: SNB-78 CNS
OVCAR-3 ovarian = test system: OVCAR-3 ovarian
MALME-3M melanoma = test system: MALME-3M melanoma
OVCAR-8 ovarian = test system: OVCAR-8 ovarian
HCT-116 colon = test system: HCT-116 colon
HCT-15 colon = test system: HCT-15 colon
UACC-62 melanoma = test system: UACC-62 melanoma
SK-OV-3 ovarian = test system: SK-OV-3 ovarian
A498 renal = test system: A498 renal
DMS 273 small cell lung = test system: DMS 273 small cell lung
XF 498 CNS = test system: XF 498 CNS

CCOc1cc2c[n+](C)c3c4cc(OC)c(OC)cc4ccc3c2cc1OC
TGI (RXF 393 renal): > 100 µM
TGI (TK-10 renal): > 100 µM
TGI (UO-31 renal): > 100 µM
TGI (CAKI-1 renal): > 100 µM
TGI (DLD-1 colon): > 100 µM
TGI (SF-295 CNS): > 100 µM
TGI (SW-620 colon): > 100 µM
TGI (HOP-62 NSCLC): > 100 µM
TGI (OVCAR-5 ovarian): > 100 µM
TGI (SF-268 CNS): > 100 µM
TGI (SN12C renal): > 100 µM
TGI (ACHN renal): > 100 µM
TGI (DMS 114 small cell lung): > 100 µM
TGI (NCI-H522 lung): > 100 µM
TGI (LOX IMVI melanoma): > 100 µM
TGI (HCC-2998 colon): > 100 µM
TGI (LXFL 529 NSCLC): > 100 µM
TGI (M14 melanoma): > 100 µM
TGI (SF-539 CNS): > 100 µM
TGI (SK-MEL-2 melanoma): > 100 µM
TGI (KM12 colon): > 100 µM
TGI (HOP-18 NSCLC): > 100 µM
TGI (A549 NSCLC): > 100 µM
TGI (EKVX NSCLC): > 100 µM
TGI (IGROV1 ovarian): > 100 µM
TGI (HT29 colon): > 100 µM
TGI (HL-60(TB) leukemia): > 100 µM
TGI (RPMI-8226 leukemia): > 100 µM
TGI (786-0 renal): 35.1 µM
TGI (NCI-H460 lung): > 100 µM
TGI (KM20L2 colon): > 100 µM
TGI (HOP-92 NSCLC): > 100 µM
TGI (SK-MEL-28 melanoma): > 100 µM
TGI (M19-MEL melanoma): > 100 µM
TGI (SNB-75 CNS): > 100 µM
TGI (OVCAR-4 ovarian): > 100 µM
TGI (MOLT-4 leukemia): > 100 µM
TGI (RXF-631 renal): 40.1 µM
TGI (NCI-H226 lung): > 100 µM
TGI (COLO 205 colon): > 100 µM
TGI (U251 CNS): > 100 µM
TGI (NCI-H23 lung): > 100 µM
TGI (K-562 leukemia): > 100 µM
TGI (UACC-257 melanoma): > 100 µM
TGI (SR leukemia): > 100 µM
TGI (SNB-19 CNS): > 100 µM
TGI (CCRF-CEM leukemia): > 100 µM
TGI (SK-MEL-5 melanoma): > 100 µM
TGI (SNB-78 CNS): > 100 µM
TGI (OVCAR-3 ovarian): > 100 µM
TGI (MALME-3M melanoma): > 100 µM
TGI (OVCAR-8 ovarian): 32.2 µM
TGI (HCT-116 colon): > 100 µM
TGI (HCT-15 colon): > 100 µM

CCOC(=O)C1C(=O)C(C(=O)OCC)C(c2ccccc2)N(C)C1c1ccccc1 (configuration not stated)
TGI (RXF 393 renal): > 100 µM
TGI (TK-10 renal): > 100 µM
TGI (UO-31 renal): > 100 µM
TGI (CAKI-1 renal): > 100 µM
TGI (DLD-1 colon): > 100 µM
TGI (SF-295 CNS): > 100 µM
TGI (SW-620 colon): > 100 µM
TGI (UACC-62 melanoma): > 100 µM
TGI (SK-OV-3 ovarian): > 100 µM
TGI (HOP-62 NSCLC): > 100 µM
TGI (OVCAR-5 ovarian): > 100 µM
TGI (SF-268 CNS): > 100 µM
TGI (SN12C renal): > 100 µM
TGI (ACHN renal): > 100 µM
TGI (DMS 114 small cell lung): > 100 µM
TGI (NCI-H522 lung): > 100 µM
TGI (LOX IMVI melanoma): > 100 µM
TGI (LXFL 529 NSCLC): > 100 µM
TGI (M14 melanoma): > 100 µM
TGI (SF-539 CNS): > 100 µM
TGI (A498 renal): > 100 µM
TGI (SK-MEL-2 melanoma): > 100 µM
TGI (KM12 colon): > 100 µM
TGI (A549 NSCLC): > 100 µM
TGI (EKVX NSCLC): > 100 µM
TGI (IGROV1 ovarian): > 100 µM
TGI (HT29 colon): > 100 µM
TGI (HL-60(TB) leukemia): > 100 µM
TGI (786-0 renal): > 100 µM
TGI (NCI-H460 lung): > 100 µM
TGI (KM20L2 colon): > 100 µM
TGI (HOP-92 NSCLC): > 100 µM
TGI (SK-MEL-28 melanoma): > 100 µM
TGI (M19-MEL melanoma): > 100 µM
TGI (SNB-75 CNS): > 100 µM
TGI (OVCAR-4 ovarian): > 100 µM
TGI (MOLT-4 leukemia): > 100 µM
TGI (RXF-631 renal): > 100 µM
TGI (DMS 273 small cell lung): > 100 µM
TGI (NCI-H226 lung): > 100 µM
TGI (COLO 205 colon): > 100 µM
TGI (U251 CNS): > 100 µM
TGI (NCI-H23 lung): > 100 µM
TGI (K-562 leukemia): > 100 µM
TGI (UACC-257 melanoma): > 100 µM
TGI (SR leukemia): > 100 µM
TGI (SNB-19 CNS): > 100 µM
TGI (CCRF-CEM leukemia): > 100 µM
TGI (SK-MEL-5 melanoma): > 100 µM
TGI (SNB-78 CNS): > 100 µM
TGI (OVCAR-3 ovarian): > 100 µM
TGI (MALME-3M melanoma): > 100 µM
TGI (OVCAR-8 ovarian): > 100 µM
TGI (HCT-116 colon): > 100 µM
TGI (HCT-15 colon): > 100 µM

O=C(/C(=C\c1ccccc1)CN1CCOCC1)c1ccc(Br)cc1
TGI (RXF 393 renal): 5.99 µM
TGI (TK-10 renal): 12.2 µM
TGI (UO-31 renal): 3.29 µM
TGI (CAKI-1 renal): 3.95 µM
TGI (DLD-1 colon): 3.13 µM
TGI (SF-295 CNS): 15.6 µM
TGI (SW-620 colon): 2.72 µM
TGI (UACC-62 melanoma): 2.98 µM
TGI (SK-OV-3 ovarian): 11.2 µM
TGI (HOP-62 NSCLC): 13.1 µM
TGI (OVCAR-5 ovarian): 9.14 µM
TGI (SF-268 CNS): 9.9 µM
TGI (SN12C renal): 4.35 µM
TGI (ACHN renal): 3.42 µM
TGI (DMS 114 small cell lung): 4.5 µM
TGI (NCI-H522 lung): 2.59 µM
TGI (LOX IMVI melanoma): 3.22 µM
TGI (HCC-2998 colon): 29.6 µM
TGI (LXFL 529 NSCLC): 4.67 µM
TGI (M14 melanoma): 3.27 µM
TGI (SF-539 CNS): 5.9 µM
TGI (A498 renal): 12.3 µM
TGI (SK-MEL-2 melanoma): 3.74 µM
TGI (KM12 colon): 3.74 µM
TGI (HOP-18 NSCLC): 3.85 µM
TGI (A549 NSCLC): 17 µM
TGI (EKVX NSCLC): 9.47 µM
TGI (IGROV1 ovarian): 9.32 µM
TGI (HT29 colon): 4.56 µM
TGI (HL-60(TB) leukemia): 4.48 µM
TGI (RPMI-8226 leukemia): 10.7 µM
TGI (786-0 renal): 3.13 µM
TGI (NCI-H460 lung): 8.79 µM
TGI (XF 498 CNS): 9.72 µM
TGI (KM20L2 colon): 7.12 µM
TGI (HOP-92 NSCLC): 10.8 µM
TGI (SK-MEL-28 melanoma): 3.85 µM
TGI (M19-MEL melanoma): 3.43 µM
TGI (SNB-75 CNS): 24.9 µM
TGI (OVCAR-4 ovarian): 8.11 µM
TGI (MOLT-4 leukemia): 19 µM
TGI (DMS 273 small cell lung): 6.47 µM
TGI (NCI-H226 lung): 12.7 µM
TGI (COLO 205 colon): 7.71 µM
TGI (U251 CNS): 6.34 µM
TGI (NCI-H23 lung): 8.48 µM
TGI (K-562 leukemia): 15.9 µM
TGI (UACC-257 melanoma): 8.93 µM
TGI (SR leukemia): 17.4 µM
TGI (SNB-19 CNS): 12.7 µM
TGI (CCRF-CEM leukemia): 11.1 µM
TGI (SK-MEL-5 melanoma): 4.08 µM
TGI (SNB-78 CNS): 20.6 µM
TGI (OVCAR-3 ovarian): 6.93 µM
TGI (MALME-3M melanoma): 3.31 µM
TGI (OVCAR-8 ovarian): 3.34 µM
TGI (HCT-116 colon): 3.2 µM
TGI (HCT-15 colon): 4.22 µM
